Laboratory results from patent US9580437B2, “Triazolopyrimidine compounds and uses thereof” (Novartis AG, priority 2014, dated 2017).

What was measured:
[1] = target: EED (1-441)-His protein (Homo sapiens (Human), UniProt O75530); test: EED-H3K27Me3 peptide competition binding assay by AlphaScreen; details: read-out: (a) IC50 EED Alphascreen binding Qualified
Text: EED-H3K27Me3 peptide competition binding assay by AlphaScreen (α-screen)

[2] = target: wild type PRC2 (wtPRC2) complex (Homo sapiens (Human), UniProt O75530); test: EED LC-MS assay; assay type: biochemical; details: read-out: (b) IC50 EED LC-MS Qualified
Description: A 6 μL solution of 3 μM of the peptide substrate H3K27Me0 (histone H3[21-44]-biotin) in reaction buffer was added to initiate each reaction. […] ELISA (H3K27 Methylation) Assay

Chain of EED (1-441)-His protein (O75530 whole entry): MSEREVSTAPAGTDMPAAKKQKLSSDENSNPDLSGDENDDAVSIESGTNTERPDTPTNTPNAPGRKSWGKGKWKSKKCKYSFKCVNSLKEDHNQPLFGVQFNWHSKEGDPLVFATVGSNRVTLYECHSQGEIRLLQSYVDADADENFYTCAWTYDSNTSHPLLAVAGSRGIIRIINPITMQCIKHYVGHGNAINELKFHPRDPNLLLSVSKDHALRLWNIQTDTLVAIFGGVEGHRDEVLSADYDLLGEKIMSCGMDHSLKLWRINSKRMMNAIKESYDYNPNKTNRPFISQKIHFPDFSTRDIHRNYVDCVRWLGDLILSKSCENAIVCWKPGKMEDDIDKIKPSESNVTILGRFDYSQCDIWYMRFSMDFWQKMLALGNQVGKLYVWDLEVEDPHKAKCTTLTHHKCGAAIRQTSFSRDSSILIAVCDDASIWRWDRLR
Chain of wild type PRC2 (wtPRC2) complex (O75530 whole entry): as above
Chain of wild type PRC2 (wtPRC2) complex (Q15910 whole entry partner): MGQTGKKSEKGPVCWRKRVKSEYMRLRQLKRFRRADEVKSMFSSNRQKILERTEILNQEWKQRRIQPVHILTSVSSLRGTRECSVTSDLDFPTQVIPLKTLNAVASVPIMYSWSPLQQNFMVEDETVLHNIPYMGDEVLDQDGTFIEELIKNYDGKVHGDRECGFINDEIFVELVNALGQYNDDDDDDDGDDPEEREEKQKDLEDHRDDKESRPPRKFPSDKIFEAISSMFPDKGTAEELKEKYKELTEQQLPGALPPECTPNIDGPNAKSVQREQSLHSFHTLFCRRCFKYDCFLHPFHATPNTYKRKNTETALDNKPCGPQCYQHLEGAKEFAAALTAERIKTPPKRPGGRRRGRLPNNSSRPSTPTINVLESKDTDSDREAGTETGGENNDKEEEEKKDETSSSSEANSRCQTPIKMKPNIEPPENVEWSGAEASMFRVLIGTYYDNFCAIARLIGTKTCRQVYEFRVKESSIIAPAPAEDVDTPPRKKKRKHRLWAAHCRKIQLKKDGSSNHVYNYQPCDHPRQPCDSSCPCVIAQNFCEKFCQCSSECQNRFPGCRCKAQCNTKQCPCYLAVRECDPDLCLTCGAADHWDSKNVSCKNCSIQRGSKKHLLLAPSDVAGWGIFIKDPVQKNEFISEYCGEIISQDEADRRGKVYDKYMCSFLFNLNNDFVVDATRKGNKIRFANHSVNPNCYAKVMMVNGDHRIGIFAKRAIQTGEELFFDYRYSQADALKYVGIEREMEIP
Chain of wild type PRC2 (wtPRC2) complex (Q15022 whole entry partner): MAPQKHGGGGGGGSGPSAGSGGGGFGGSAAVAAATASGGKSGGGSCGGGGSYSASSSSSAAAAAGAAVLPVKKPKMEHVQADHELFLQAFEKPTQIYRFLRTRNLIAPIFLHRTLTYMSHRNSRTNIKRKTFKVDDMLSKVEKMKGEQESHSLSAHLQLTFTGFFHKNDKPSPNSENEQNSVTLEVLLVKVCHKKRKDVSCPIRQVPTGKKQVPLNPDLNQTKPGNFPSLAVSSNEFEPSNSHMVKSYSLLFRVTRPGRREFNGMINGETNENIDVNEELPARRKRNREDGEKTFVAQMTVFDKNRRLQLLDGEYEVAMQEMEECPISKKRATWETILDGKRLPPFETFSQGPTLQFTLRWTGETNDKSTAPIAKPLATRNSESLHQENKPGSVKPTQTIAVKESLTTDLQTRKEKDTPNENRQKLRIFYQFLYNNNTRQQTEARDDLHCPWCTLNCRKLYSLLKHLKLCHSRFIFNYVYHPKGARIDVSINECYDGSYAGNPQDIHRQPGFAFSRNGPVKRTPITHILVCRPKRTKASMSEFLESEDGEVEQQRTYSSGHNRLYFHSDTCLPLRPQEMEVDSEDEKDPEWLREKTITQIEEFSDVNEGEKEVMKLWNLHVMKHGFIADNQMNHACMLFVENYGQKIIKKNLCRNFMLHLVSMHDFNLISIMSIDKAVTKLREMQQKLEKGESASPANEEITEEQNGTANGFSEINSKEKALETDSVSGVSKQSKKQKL

| SMILES | IC50 [1] [nM] | IC50 [2] [nM] |
| --- | --- | --- |
| O=C1CN(CCc2ccc(-c3cnc(NCc4cccc5c4CCO5)n4cnnc34)cn2)CCN1 [Example 109, 4-(2-(5-(5-(((2,3-dihydrobenzofuran-4-yl)methyl)amino)-[1,2,4]triazolo[4,3-c]pyrimidin-8-yl)pyridin-2-yl)ethyl)piperazin-2-one] | 8.8 | 13.7 |
| Cc1cnn(-c2cnc(NCc3c(F)ccc4c3CCO4)n3cnnc23)c1 [Example 239, N-((5-fluoro-2,3-dihydrobenzofuran-4-yl)methyl)-8-(4-methyl-1H-pyrazol-1-yl)-[1,2,4]triazolo[4,3-c]pyrimidin-5-amine] | 6.8 | 15.9 |
| Cc1cc(-c2cnc(NCc3cccc4c3CCO4)n3cnnc23)cnc1N1CCN(C)CC1 [Example 36, N-((2,3-dihydrobenzofuran-4-yl)methyl)-8-(5-methyl-6-(4-methylpiperazin-1-yl)pyridin-3-yl)-[1,2,4]triazolo[4,3-c]pyrimidin-5-amine] | 18.5 | 22.4 |
| Fc1ccc2c(c1CNc1ncc(-c3ccncc3)c3nncn13)CCO2 [Example 45, N-((5-fluoro-2,3-dihydrobenzofuran-4-yl)methyl)-8-(pyridin-4-yl)-[1,2,4]triazolo[4,3-c]pyrimidin-5-amine] | 20 | 32.8 |
| CN(C)C(=O)c1cccc(-c2cnc(NCc3cccc4c3CCO4)n3cnnc23)c1 [Example 43, 3-(5-(((2,3-dihydrobenzofuran-4-yl)methyl)amino)-[1,2,4]triazolo[4,3-c]pyrimidin-8-yl)-N,N-dimethylbenzamide] | 30.9 | 33.1 |
| Nc1ccc(-c2cnc(NCc3cccc4c3CCO4)n3cnnc23)cn1 [Example 48, 8-(6-aminopyridin-3-yl)-N-((2,3-dihydrobenzofuran-4-yl)methyl)-[1,2,4]triazolo[4,3-c]pyrimidin-5-amine] | 12.9 | 30.2 |
| Clc1ccccc1-c1cnc(NCc2cccc3c2CCO3)n2cnnc12 [Example 32, 8-(2-chlorophenyl)-N-((2,3-dihydrobenzofuran-4-yl)methyl)-[1,2,4]triazolo[4,3-c]pyrimidin-5-amine] | 43.4 | 22.9 |
| CS(=O)(=O)c1cccc(-c2cnc(NCc3cccc4c3CCO4)n3cnnc23)c1 [Example 27, N-((2,3-dihydrobenzofuran-4-yl)methyl)-8-(3-(methylsulfonyl)phenyl)-[1,2,4]triazolo[4,3-c]pyrimidin-5-amine] | 19.9 | 47.2 |
| OCc1ccc(-c2cnc(NCc3c(F)ccc4c3CCO4)n3cnnc23)cn1 [Example 234, (5-(5-(((5-fluoro-2,3-dihydrobenzofuran-4-yl)methyl)amino)-[1,2,4]triazolo[4,3-c]pyrimidin-8-yl)pyridin-2-yl)methanol] | 5.4 | 11.2 |
| Cn1nccc1-c1cnc(NCc2cccc3c2CCO3)n2cnnc12 [Example 152, N-((2,3-dihydrobenzofuran-4-yl)methyl)-8-(1-methyl-1H-pyrazol-5-yl)-[1,2,4]triazolo[4,3-c]pyrimidin-5-amine] | 5.5 | 6.9 |
| CS(=O)(=O)Nc1ccc(-c2cnc(NCc3cccc4c3CCO4)n3cnnc23)cc1F [Example 33, N-(4-(5-(((2,3-dihydrobenzofuran-4-yl)methyl)amino)-[1,2,4]triazolo[4,3-c]pyrimidin-8-yl)-2-fluorophenyl)methanesulfonamide] | 28.5 | 17.5 |
| Cc1cnc(C(F)(F)F)cc1-c1cnc(NCc2c(F)ccc3c2CCO3)n2cnnc12 [Example 184, N-((5-fluoro-2,3-dihydrobenzofuran-4-yl)methyl)-8-(5-methyl-2-(trifluoromethyl)pyridin-4-yl)-[1,2,4]triazolo[4,3-c]pyrimidin-5-amine] | 5.4 | 13.2 |
| NC(=O)c1ccccc1-c1cnc(NCc2c(F)ccc3c2CCO3)n2cnnc12 [Example 122, 2-(5-(((5-fluoro-2,3-dihydrobenzofuran-4-yl)methyl)amino)-[1,2,4]triazolo[4,3-c]pyrimidin-8-yl)benzamide] | 19.2 | 43.7 |
| CN(C)CCc1ccc(-c2cnc(NCc3cccc4c3CCO4)n3cnnc23)cn1 [Example 53, N-((2,3-dihydrobenzofuran-4-yl)methyl)-8-(6-(2-(dimethylamino)ethyl)pyridin-3-yl)-[1,2,4]triazolo[4,3-c]pyrimidin-5-amine] | 12.4 | 28.7 |
| c1cc(CNc2ncc(-c3cncc(N4CCNCC4)c3)c3nncn23)c2c(c1)OCC2 [Example 77, N-((2,3-dihydrobenzofuran-4-yl)methyl)-8-(5-(piperazin-1-yl)pyridin-3-yl)-[1,2,4]triazolo[4,3-c]pyrimidin-5-amine] | 21.6 | 52.3 |
| Fc1ccc(-c2cnc(NCc3c(F)ccc4c3CCO4)n3cnnc23)c(Cl)c1 [Example 157, 8-(2-chloro-4-fluorophenyl)-N-((5-fluoro-2,3-dihydrobenzofuran-4-yl)methyl)-[1,2,4]triazolo[4,3-c]pyrimidin-5-amine] | 22.3 | 46.3 |
| Cc1ncccc1-c1cnc(NCc2cccc3c2CCO3)n2cnnc12 [Example 123, N-((2,3-dihydrobenzofuran-4-yl)methyl)-8-(2-methylpyridin-3-yl)-[1,2,4]triazolo[4,3-c]pyrimidin-5-amine] | 12.3 | 23.4 |
| Fc1ccccc1-c1cnc(NCc2cccc3c2CCO3)n2cnnc12 [Example 31, N-((2,3-dihydrobenzofuran-4-yl)methyl)-8-(2-fluorophenyl)-[1,2,4]triazolo[4,3-c]pyrimidin-5-amine] | 30.2 | 21.5 |
| Cn1ncc(-c2cnc(NCc3c(F)ccc4c3CCO4)n3cnnc23)c1CO [Example 227, (4-(5-(((5-fluoro-2,3-dihydrobenzofuran-4-yl)methyl)amino)-[1,2,4]triazolo[4,3-c]pyrimidin-8-yl)-1-methyl-1H-pyrazol-5-yl)methanol] | 6.1 | 7.5 |
| OCc1ncccc1-c1cnc(NCc2c(F)ccc3c2C(O)CO3)n2cnnc12 (stereo not drawn) [Example 243, 5-fluoro-4-(((8-(2-(hydroxymethyl)pyridin-3-yl)-[1,2,4]triazolo[4,3-c]pyrimidin-5-yl)amino)methyl)-2,3-dihydrobenzofuran-3-ol] | 15.4 | 59 |
| CN1CCN(c2ccc(-c3cnc(NCc4cccc5c4CCO5)n4cnnc34)cn2)CC1 [Example 20, N-((2,3-dihydrobenzofuran-4-yl)methyl)-8-(6-(4-methylpiperazin-1-yl)pyridin-3-yl)-[1,2,4]triazolo[4,3-c]pyrimidin-5-amine] | 14.4 | 17.1 |
| Cc1c(-c2cnc(NCc3c(F)ccc4c3CCO4)n3cnnc23)cnn1C(C)C [Example 188, N-((5-fluoro-2,3-dihydrobenzofuran-4-yl)methyl)-8-(1-isopropyl-5-methyl-1H-pyrazol-4-yl)-[1,2,4]triazolo[4,3-c]pyrimidin-5-amine] | 2.3 | 3.8 |
| CS(=O)(=O)Nc1ccc(-c2cnc(NCc3cccc4c3CCO4)n3cnnc23)cc1 [Example 19, N-(4-(5-(((2,3-dihydrobenzofuran-4-yl)methyl)amino)-[1,2,4]triazolo[4,3-c]pyrimidin-8-yl)phenyl)methanesulfonamide] | 18.9 | 19.2 |
| COc1ncc(-c2cnc(NCc3c(F)ccc4c3CCO4)n3cnnc23)c(C)n1 [Example 175, N-((5-fluoro-2,3-dihydrobenzofuran-4-yl)methyl)-8-(2-methoxy-4-methylpyrimidin-5-yl)-[1,2,4]triazolo[4,3-c]pyrimidin-5-amine] | 6.3 | 9.2 |
| O=C(c1ccc(-c2cnc(NCc3cccc4c3CCO4)n3cnnc23)cn1)N1CCCC1 [Example 80, (5-(5-(((2,3-dihydrobenzofuran-4-yl)methyl)amino)-[1,2,4]triazolo[4,3-c]pyrimidin-8-yl)pyridin-2-yl)(pyrrolidin-1-yl)methanone] | 3.7 | 8.8 |
| O=CN1CCCN(c2ccc(-c3cnc(NCc4cccc5c4CCO5)n4cnnc34)cn2)CC1 [Example 113, 4-(5-(5-(((2,3-dihydrobenzofuran-4-yl)methyl)amino)-[1,2,4]triazolo[4,3-c]pyrimidin-8-yl)pyridin-2-yl)-1,4-diazepane-1-carbaldehyde] | 12.7 | 15.7 |
| Fc1ccc2c(c1CNc1ncc(-n3cccn3)c3nncn13)CCO2 [Example 237, N-((5-fluoro-2,3-dihydrobenzofuran-4-yl)methyl)-8-(1H-pyrazol-1-yl)-[1,2,4]triazolo[4,3-c]pyrimidin-5-amine] | 3.1 | 10 |
| Cc1nn(C2CC2)c(C)c1-c1cnc(NCc2c(F)ccc3c2CCO3)n2cnnc12 [Example 179, 8-(1-cyclopropyl-3,5-dimethyl-1H-pyrazol-4-yl)-N-((5-fluoro-2,3-dihydrobenzofuran-4-yl)methyl)-[1,2,4]triazolo[4,3-c]pyrimidin-5-amine] | 12.4 | 16.1 |
| CN1CCC(S(=O)(=O)c2ccc(-c3cnc(NCc4cccc5occc45)n4cnnc34)cc2)CC1 [Example 220, N-(benzofuran-4-ylmethyl)-8-(4-((1-methylpiperidin-4-yl)sulfonyl)phenyl)-[1,2,4]triazolo[4,3-c]pyrimidin-5-amine] | 14.1 | 21.6 |
| Cc1nn(C(C)C)c(C)c1-c1cnc(NCc2cccc3c2CCO3)n2cnnc12 [Example 153, N-((2,3-dihydrobenzofuran-4-yl)methyl)-8-(1-isopropyl-3,5-dimethyl-1H-pyrazol-4-yl)-[1,2,4]triazolo[4,3-c]pyrimidin-5-amine] | 7.8 | 14.8 |
